Measurements reported in patent US11497752B2, “Compounds and uses thereof” (Foghorn Therapeutics Inc., priority 2018, dated 2022).

Columns and labels:
BRM = BRM (Homo sapiens, UniProt P51531); assay: ATPase catalytic activity of BRM (ADP-Glo in vitro biochemical assay); details: for BRM Max % Inhibition: Table 6
BRG-1 = BRG-1 (Homo sapiens, UniProt P51532); assay: ATPase catalytic activity of BRG-1 (ADP-Glo in vitro biochemical assay); details: for BRG1 Max % Inhibition: Table 6
BRG-1, sequence (P51532 whole entry): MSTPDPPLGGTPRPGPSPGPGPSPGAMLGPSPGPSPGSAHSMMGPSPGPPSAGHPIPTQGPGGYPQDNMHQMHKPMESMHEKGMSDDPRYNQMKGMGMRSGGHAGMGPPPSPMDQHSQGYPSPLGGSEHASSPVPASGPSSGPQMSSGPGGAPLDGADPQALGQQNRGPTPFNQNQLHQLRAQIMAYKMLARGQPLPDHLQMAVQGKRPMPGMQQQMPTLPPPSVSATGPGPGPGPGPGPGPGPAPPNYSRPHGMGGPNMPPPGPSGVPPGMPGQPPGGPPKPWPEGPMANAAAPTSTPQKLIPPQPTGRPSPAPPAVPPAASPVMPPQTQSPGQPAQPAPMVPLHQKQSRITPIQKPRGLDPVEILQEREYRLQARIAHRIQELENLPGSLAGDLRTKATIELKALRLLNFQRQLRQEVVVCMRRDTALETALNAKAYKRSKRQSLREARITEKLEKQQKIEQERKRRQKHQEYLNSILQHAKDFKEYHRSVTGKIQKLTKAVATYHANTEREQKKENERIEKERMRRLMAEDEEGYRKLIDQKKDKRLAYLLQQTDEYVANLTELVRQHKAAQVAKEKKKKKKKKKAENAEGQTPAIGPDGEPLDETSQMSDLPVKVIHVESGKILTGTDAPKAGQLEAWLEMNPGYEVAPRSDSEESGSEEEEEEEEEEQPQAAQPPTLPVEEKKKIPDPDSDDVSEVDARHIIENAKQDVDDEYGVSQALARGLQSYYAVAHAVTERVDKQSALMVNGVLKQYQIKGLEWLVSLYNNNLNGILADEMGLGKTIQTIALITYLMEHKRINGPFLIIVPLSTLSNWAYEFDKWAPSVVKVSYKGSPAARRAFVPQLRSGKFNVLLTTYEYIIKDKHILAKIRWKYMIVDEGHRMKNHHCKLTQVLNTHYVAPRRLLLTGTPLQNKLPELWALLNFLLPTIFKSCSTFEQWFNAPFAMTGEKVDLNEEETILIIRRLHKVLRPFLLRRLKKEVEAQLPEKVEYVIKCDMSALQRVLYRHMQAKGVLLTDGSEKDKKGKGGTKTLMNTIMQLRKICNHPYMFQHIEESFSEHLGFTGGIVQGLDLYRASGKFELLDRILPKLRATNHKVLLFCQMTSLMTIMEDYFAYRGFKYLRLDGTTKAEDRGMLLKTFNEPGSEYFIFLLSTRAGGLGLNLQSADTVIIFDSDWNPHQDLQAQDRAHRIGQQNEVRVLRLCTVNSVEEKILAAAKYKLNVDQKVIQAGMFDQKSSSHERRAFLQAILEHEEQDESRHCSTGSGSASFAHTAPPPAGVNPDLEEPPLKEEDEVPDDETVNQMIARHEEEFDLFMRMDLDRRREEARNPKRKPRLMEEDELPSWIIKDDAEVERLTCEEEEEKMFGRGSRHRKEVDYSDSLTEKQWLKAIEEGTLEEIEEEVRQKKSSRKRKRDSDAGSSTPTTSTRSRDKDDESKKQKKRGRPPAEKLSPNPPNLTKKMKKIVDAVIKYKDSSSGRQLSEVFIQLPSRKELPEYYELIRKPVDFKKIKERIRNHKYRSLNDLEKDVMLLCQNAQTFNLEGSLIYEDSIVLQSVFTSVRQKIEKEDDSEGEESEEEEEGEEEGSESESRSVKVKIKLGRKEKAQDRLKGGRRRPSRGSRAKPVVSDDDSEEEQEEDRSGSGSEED

BRM, sequence (P51531 whole entry): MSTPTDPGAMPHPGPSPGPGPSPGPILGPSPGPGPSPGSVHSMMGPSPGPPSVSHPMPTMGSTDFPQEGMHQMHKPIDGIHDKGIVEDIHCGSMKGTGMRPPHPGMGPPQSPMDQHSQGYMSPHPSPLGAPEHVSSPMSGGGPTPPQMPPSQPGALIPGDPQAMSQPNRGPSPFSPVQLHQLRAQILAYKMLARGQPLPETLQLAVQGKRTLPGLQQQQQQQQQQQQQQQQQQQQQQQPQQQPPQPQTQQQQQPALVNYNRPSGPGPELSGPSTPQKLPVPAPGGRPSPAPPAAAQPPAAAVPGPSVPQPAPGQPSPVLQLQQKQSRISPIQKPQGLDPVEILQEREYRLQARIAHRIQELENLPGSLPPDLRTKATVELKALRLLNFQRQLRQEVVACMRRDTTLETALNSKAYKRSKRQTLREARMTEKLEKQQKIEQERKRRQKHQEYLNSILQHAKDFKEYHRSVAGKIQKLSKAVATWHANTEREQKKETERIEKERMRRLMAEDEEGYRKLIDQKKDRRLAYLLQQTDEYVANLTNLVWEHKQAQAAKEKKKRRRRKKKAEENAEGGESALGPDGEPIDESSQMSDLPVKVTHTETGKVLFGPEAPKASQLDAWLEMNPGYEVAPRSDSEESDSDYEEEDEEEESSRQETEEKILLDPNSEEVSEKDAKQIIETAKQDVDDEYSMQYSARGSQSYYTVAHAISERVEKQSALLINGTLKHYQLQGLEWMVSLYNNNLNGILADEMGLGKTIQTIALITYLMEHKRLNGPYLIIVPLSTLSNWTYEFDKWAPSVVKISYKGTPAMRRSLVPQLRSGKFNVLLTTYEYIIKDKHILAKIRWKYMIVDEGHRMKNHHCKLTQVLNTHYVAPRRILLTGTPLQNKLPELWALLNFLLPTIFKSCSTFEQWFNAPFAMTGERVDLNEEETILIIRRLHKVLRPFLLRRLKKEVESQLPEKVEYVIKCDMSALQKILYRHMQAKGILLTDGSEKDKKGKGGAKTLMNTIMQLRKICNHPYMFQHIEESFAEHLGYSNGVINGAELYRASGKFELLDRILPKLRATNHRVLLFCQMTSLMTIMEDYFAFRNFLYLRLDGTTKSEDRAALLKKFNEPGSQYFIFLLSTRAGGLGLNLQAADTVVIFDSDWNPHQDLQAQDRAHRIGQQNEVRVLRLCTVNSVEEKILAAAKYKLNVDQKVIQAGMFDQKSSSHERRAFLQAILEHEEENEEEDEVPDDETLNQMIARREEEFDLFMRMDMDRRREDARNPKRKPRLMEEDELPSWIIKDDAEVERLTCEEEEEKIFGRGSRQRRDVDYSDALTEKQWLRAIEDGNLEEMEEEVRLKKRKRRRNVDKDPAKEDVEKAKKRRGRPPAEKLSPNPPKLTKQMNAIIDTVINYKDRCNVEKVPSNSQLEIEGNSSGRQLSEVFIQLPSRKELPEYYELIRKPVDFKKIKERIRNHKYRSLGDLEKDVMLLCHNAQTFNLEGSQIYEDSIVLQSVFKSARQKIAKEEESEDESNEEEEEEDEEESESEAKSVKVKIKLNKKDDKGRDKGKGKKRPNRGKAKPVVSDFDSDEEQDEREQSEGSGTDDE

SMILES	IC50 (BRM) [nM]	BRM Max % Inhibition (BRM) [%]	IC50 (BRG-1) [nM]	BRG1 Max % Inhibition (BRG-1) [%]
CN(C)c1ccc(C(=O)NCC(=O)Nc2nc(-c3cccc(-c4ccncc4)c3)cs2)cc1 [Compound 132, 4-(dimethylamino)-N-(2-oxo-2-((4-(3-(pyridin-4-yl)phenyl)thiazol-2-yl)amino)ethyl)benzamide]	< 100	>80	< 100	>70
Nc1ccc(C(=O)NCC(=O)Nc2nc(-c3cccc(-c4ccnc(N)c4)c3)cs2)cc1 [Compound 133, 4-amino-N-(2-((4-(3-(2-aminopyridin-4-yl)phenyl)thiazol-2-yl)amino)-2-oxoethyl)benzamide]	< 100	>95	< 100	>95
CS(=O)(=O)c1ccc(-c2cccc(-c3csc(NC(=O)CNC(=O)c4ccc(N)cc4)n3)c2)cc1 [Compound 134, 4-amino-N-(2-((4-(4′-(methylsulfonyl)-[1,1′-biphenyl]-3-yl)thiazol-2-yl)amino)-2-oxoethyl)benzamide]	100 to 1000	>50	100 to 1000	>50
NCc1cccc(-c2cccc(-c3csc(NC(=O)CNC(=O)c4ccc(N)cc4)n3)c2)c1 [Compound 135, 4-amino-N-(2-((4-(3′-(aminomethyl)-[1,1′-biphenyl]-3-yl)thiazol-2-yl)amino)-2-oxoethyl)benzamide]	< 100	>95	< 100	>95
Nc1ccc(C(=O)NCC(=O)Nc2nc(-c3cccc(-c4cccc(C(=O)O)c4)c3)cs2)cc1 [Compound 136, 3′-(2-(2-(4-aminobenzamido)acetamido)thiazol-4-yl)-[1,1′-biphenyl]-3-carboxylic acid]	100 to 1000	>95	100 to 1000	>95
CN(C)C(=O)c1ccc(-c2cccc(-c3csc(NC(=O)CNC(=O)c4ccc(N)cc4)n3)c2)cc1 [Compound 137, 3′-(2-(2-(4-aminobenzamido)acetamido)thiazol-4-yl)-N,N-dimethyl-[1,1′-biphenyl]-4-carboxamide]	100 to 1000	>90	100 to 1000	>95
CC(=O)N(C)Cc1ccc(-c2cccc(-c3csc(NC(=O)CNC(=O)c4ccc(N)cc4)n3)c2)cc1 [Compound 138, 4-amino-N-(2-((4-(4′-((N-methylacetamido)methyl)-[1,1′-biphenyl]-3-yl)thiazol-2-yl)amino)-2-oxoethyl)benzamide]	100 to 1000	>90	100 to 1000	>90
Nc1ccc(C(=O)NCC(=O)Nc2nc(-c3cccc(-c4ccc(O)cc4)c3)cs2)cc1 [Compound 139, 4-amino-N-(2-((4-(4′-hydroxy-[1,1′-biphenyl]-3-yl)thiazol-2-yl)amino)-2-oxoethyl)benzamide]	< 100	>95	< 100	>95
Cn1ccc(-c2cccc(-c3csc(NC(=O)CNC(=O)c4ccc(N)cc4)n3)c2)cc1=O [Compound 140, 4-amino-N-(2-((4-(3-(1-methyl-2-oxo-1,2-dihydropyridin-4-yl)phenyl)thiazol-2-yl)amino)-2-oxoethyl)benzamide]	100 to 1000	>95	100 to 1000	>90
Nc1ccc(C(=O)NCC(=O)Nc2nc(-c3cccc(-c4cccc(O)c4)c3)cs2)cc1 [Compound 141, 4-amino-N-(2-((4-(3′-hydroxy-[1,1′-biphenyl]-3-yl)thiazol-2-yl)amino)-2-oxoethyl)benzamide]	< 100	>95	100 to 1000	>95
Nc1ccc(C(=O)NCC(=O)Nc2nc(-c3cccc(-c4ccccc4F)c3)cs2)cc1 [Compound 142, 4-amino-N-(2-((4-(2′-fluoro-[1,1′-biphenyl]-3-yl)thiazol-2-yl)\amino)-2-oxoethyl)benzamide]	100 to 1000	>90	100 to 1000	>90
Cn1ccc2ccc(-c3csc(NC(=O)CNC(=O)c4ccc(N)cc4)n3)cc2c1=O [Compound 143, 4-amino-N-(2-((4-(2-methyl-1-oxo-1,2-dihydroisoquinolin-7-yl)thiazol-2-yl)amino)-2-oxoethyl)benzamide]	< 100	>95	< 100	>95
CNC(=O)c1cccc(-c2cccc(-c3csc(NC(=O)CNC(=O)c4ccc(N)cc4)n3)c2)c1 [Compound 144, 3-[3-[2-[[2-[(4-aminobenzoyl)amino]acetyl]amino]thiazol-4-yl]phenyl]-N-methyl-benzamide]	100 to 1000	>95	100 to 1000	>95
CN(C)Cc1ccc(-c2cccc(-c3csc(NC(=O)CNC(=O)c4ccc(N)cc4)n3)c2)cc1 [Compound 145, 4-amino-N-(2-((4-(4′-((dimethylamino)methyl)-[1,1′-biphenyl]-3-yl)thiazol-2-yl)amino)-2-oxoethyl)benzamide]	100 to 1000	>90	100 to 1000	>90
COc1cc(-c2cccc(-c3csc(NC(=O)CNC(=O)c4ccc(N)cc4)n3)c2)ccn1 [Compound 146, 4-amino-N-(2-((4-(3-(2-methoxypyridin-4-yl)phenyl)thiazol-2-yl)amino)-2-oxoethyl)benzamide]	< 100	>95	< 100	>95
Nc1ccc(C(=O)NCC(=O)Nc2nc(-c3ccc4cc[nH]c(=O)c4c3)cs2)cc1 [Compound 147, 4-amino-N-(2-oxo-2-((4-(1-oxo-1,2-dihydroisoquinolin-7-yl)thiazol-2-yl)amino)ethyl)benzamide]	< 100	>95	< 100	>95
Cn1cnc2ccc(-c3csc(NC(=O)CNC(=O)c4ccc(N)cc4)n3)cc2c1=O [Compound 148, 4-amino-N-(2-((4-(3-methyl-4-oxo-3,4-dihydroquinazolin-6-yl)thiazol-2-yl)amino)-2-oxoethyl)benzamide]	< 100	>95	< 100	>95
N#Cc1ccc(-c2cccc(-c3csc(NC(=O)CNC(=O)c4ccc(N)cc4)n3)c2)cc1 [Compound 149, 4-amino-N-(2-((4-(4′-cyano-[1,1′-biphenyl]-3-yl)thiazol-2-yl)amino)-2-oxoethyl)benzamide]	< 100	>80	< 100	>80
Cn1ncc2ccc(-c3csc(NC(=O)CNC(=O)c4ccc(N)cc4)n3)cc2c1=O [Compound 150, 4-amino-N-(2-((4-(3-methyl-4-oxo-3,4-dihydrophthalazin-6-yl)thiazol-2-yl)amino)-2-oxoethyl)benzamide]	< 100	>95	< 100	>90
Nc1ccc(C(=O)NCC(=O)Nc2nc(-c3cccc(-c4ccn(CC(F)(F)F)n4)c3)cs2)cc1 [Compound 151, 4-amino-N-(2-oxo-2-((4-(3-(1-(2,2,2-trifluoroethyl)-1H-pyrazol-3-yl)phenyl)thiazol-2-yl)amino)ethyl)benzamide]	100 to 1000	>80	100 to 1000	>80
Nc1ccc(C(=O)NCC(=O)Nc2nc(-c3cccc(-c4cccc(F)c4)c3)cs2)cc1 [Compound 152, 4-amino-N-(2-((4-(3′-fluoro-[1,1′-biphenyl]-3-yl)thiazol-2-yl)amino)-2-oxoethyl)benzamide]	100 to 1000	>90	100 to 1000	>80
Nc1ccc(C(=O)NCC(=O)Nc2nc(-c3cccc(-c4ccc(CO)cc4)c3)cs2)cc1 [Compound 153, 4-amino-N-(2-((4-(4′-(hydroxymethyl)-[1,1′-biphenyl]-3-yl)thiazol-2-yl)amino)-2-oxoethyl)benzamide]	< 100	>90	< 100	>80
Nc1ccc(C(=O)NCC(=O)Nc2nc(-c3cccc(-c4cccc(CO)c4)c3)cs2)cc1 [Compound 154, 4-amino-N-(2-((4-(3′-(hydroxymethyl)-[1,1′-biphenyl]-3-yl)thiazol-2-yl)amino)-2-oxoethyl)benzamide]	< 100	>95	< 100	>95
Nc1ccc(C(=O)NCC(=O)Nc2nc(-c3cccc(-c4cc[n+]([O-])cc4)c3)cs2)cc1 [Compound 156, 4-(3-(2-(2-(4-aminobenzamido)acetamido)thiazol-4-yl)phenyl)pyridine 1-oxide]	100 to 1000	>95	100 to 1000	>90
N#Cc1cccc(-c2cccc(-c3csc(NC(=O)CNC(=O)c4ccc(N)cc4)n3)c2)c1 [Compound 157, 4-amino-N-(2-((4-(3′-cyano-[1,1′-biphenyl]-3-yl)thiazol-2-yl)amino)-2-oxoethyl)benzamide]	< 100	>95	< 100	>90
NCC1CC=C(c2cccc(-c3csc(NC(=O)CNC(=O)c4ccc(N)cc4)n3)c2)CC1 (centres unmarked) [Compound 158, 4-amino-N-(2-((4-(4′-(aminomethyl)-2′,3′,4′,5′-tetrahydro-[1,1′-biphenyl]-3-yl)thiazol-2-yl)amino)-2-oxoethyl)benzamide]	100 to 1000	>90	100 to 1000	>95
